Test results taken from ChEMBL document CHEMBL1649287, “Postantibiotic effect of ceftaroline against gram-positive organisms” (2009).
Values after ≈ are worked out from the molar mass of the structure shown.

Experiments:
Format in all cases: functional
Streptococcus pneumoniae [1] = test: Antimicrobial activity against Penicillin-intermediate Streptococcus pneumoniae s1234 assessed as time required to induce sub-MIC effect at 0.3 times MIC after 1 hr by plate counting method
Staphylococcus aureus [2] = test: Antimicrobial activity against methicillin-resistant, vancomycin-resistant Staphylococcus aureus 770 assessed as time required to induce post antibiotic sub-MIC effect at 0.2 times MIC after 1 hr by plate counting method; settings: Staphylococcus aureus, 770, 1 h
Enterococcus faecalis [3] = test: Antimicrobial activity against vancomycin-sensitive Enterococcus faecalis 10 assessed as time required to induce sub-MIC effect at 0.4 times MIC after 1 hr by plate counting method; settings: Enterococcus faecalis, 10, 1 h
Staphylococcus aureus [4] = test: Antimicrobial activity against methicillin-susceptible, vancomycin-susceptible Staphylococcus aureus sox1 assessed as time required to induce sub-MIC effect at 0.2 times MIC after 1 hr by plate counting method; settings: sox1, 1 h
Enterococcus faecalis [5] = test: Antimicrobial activity against vancomycin-sensitive Enterococcus faecalis 20 assessed as time required to induce post antibiotic sub-MIC effect at 0.4 times MIC after 1 hr by plate counting method; settings: Enterococcus faecalis, 20, 1 h
Streptococcus pneumoniae [6] = test: Antimicrobial activity against Penicillin-susceptible Streptococcus pneumoniae ATCC 49617 assessed as time required to induce sub-MIC effect at 0.2 times MIC after 1 hr by plate counting method; settings: ATCC 49617, 1 h
Enterococcus faecalis [7] = test: Antimicrobial activity against vancomycin-resistant Enterococcus faecalis 609 assessed as time required to induce sub-MIC effect at 0.4 times MIC after 1 hr by plate counting method; settings: Enterococcus faecalis, 609, 1 h
Streptococcus pneumoniae [8] = test: Antimicrobial activity against Penicillin-intermediate Streptococcus pneumoniae s1234 assessed as time required to induce sub-MIC effect at 0.4 times MIC after 1 hr by plate counting method; settings: s1234, 1 h
Enterococcus faecalis [9] = test: Antimicrobial activity against vancomycin-resistant Enterococcus faecalis 609 assessed as time required to induce sub-MIC effect at 0.2 times MIC after 1 hr by plate counting method; settings: Enterococcus faecalis, 609, 1 h
Staphylococcus aureus [10] = test: Antimicrobial activity against methicillin-susceptible, vancomycin-susceptible Staphylococcus aureus sox1 assessed as time required to induce post antibiotic sub-MIC effect at 0.3 times MIC after 1 hr by plate counting method; settings: sox1, 1 h
Staphylococcus aureus [11] = test: Antimicrobial activity against methicillin-resistant, vancomycin-susceptible Staphylococcus aureus vs1 assessed as time required to induce sub-MIC effect at 0.4 times MIC after 1 hr by plate counting method; settings: vs1, 1 h
Streptococcus pneumoniae [12] = test: Antimicrobial activity against Penicillin-susceptible Streptococcus pneumoniae s502 assessed as time required to induce sub-MIC effect at 0.2 times MIC after 1 hr by plate counting method
Streptococcus pneumoniae [13] = test: Antimicrobial activity against Streptococcus pneumoniae ATCC 10813 infected in neutropenic ICR mouse assessed as post antibiotic effect at 1.56 to 100 mg/kg, sc administered 14 hrs post infection; settings: dose mg/kg 1.56-100; route subcutaneous
Staphylococcus aureus [14] = test: Antimicrobial activity against methicillin-susceptible, vancomycin-susceptible Staphylococcus aureus ATCC 29213 assessed as time required to induce sub-MIC effect at 0.2 times MIC after 1 hr by plate counting method; settings: ATCC 29213, 1 h
Streptococcus pneumoniae [15] = test: Antimicrobial activity against Penicillin-susceptible Streptococcus pneumoniae s502 assessed as time required to induce post antibiotic sub-MIC effect at 0.4 times MIC after 1 hr by plate counting method; settings: s502, 1 h
Enterococcus faecalis [16] = test: Antimicrobial activity against vancomycin-resistant Enterococcus faecalis 609 assessed as time required to induce post antibiotic sub-MIC effect at 0.2 times MIC after 1 hr by plate counting method; settings: Enterococcus faecalis, 609, 1 h
Streptococcus pneumoniae [17] = test: Antimicrobial activity against Penicillin-susceptible Streptococcus pneumoniae ATCC 49617 assessed as time required to induce post antibiotic sub-MIC effect at 0.2 times MIC after 1 hr by plate counting method; settings: ATCC 49617, 1 h
Enterococcus faecalis [18] = test: Antimicrobial activity against vancomycin-sensitive Enterococcus faecalis 10 assessed as time required to induce sub-MIC effect at 0.3 times MIC after 1 hr by plate counting method; settings: Enterococcus faecalis, 10, 1 h
Streptococcus pneumoniae [19] = test: Antimicrobial activity against Penicillin-, erythromycin-resistant Streptococcus pneumoniae 37 assessed as time required to induce post antibiotic sub-MIC effect at 0.3 times MIC after 1 hr by plate counting method; settings: Streptococcus pneumoniae, 37, 1 h
Enterococcus faecalis [20] = test: Antimicrobial activity against vancomycin-resistant Enterococcus faecalis 266 assessed as time required to induce post antibiotic sub-MIC effect at 0.2 times MIC after 1 hr by plate counting method; settings: Enterococcus faecalis, 266, 1 h
Enterococcus faecalis [21] = test: Antimicrobial activity against vancomycin-resistant Enterococcus faecalis 266 assessed as time required to induce post antibiotic sub-MIC effect at 0.4 times MIC after 1 hr by plate counting method; settings: Enterococcus faecalis, 266, 1 h
Enterococcus faecalis [22] = test: Antimicrobial activity against vancomycin-resistant Enterococcus faecalis 609 assessed as time required to induce post antibiotic sub-MIC effect at 0.4 times MIC after 1 hr by plate counting method; settings: Enterococcus faecalis, 609, 1 h
Streptococcus pneumoniae [23] = test: Antimicrobial activity against Penicillin-susceptible Streptococcus pneumoniae s502 assessed as time required to induce sub-MIC effect at 0.4 times MIC after 1 hr by plate counting method; settings: s502, 1 h
Staphylococcus aureus [24] = test: Antimicrobial activity against methicillin-resistant, vancomycin-resistant Staphylococcus aureus 770 assessed as time required to induce post antibiotic sub-MIC effect at 0.4 times MIC after 1 hr by plate counting method; settings: Staphylococcus aureus, 770, 1 h
Enterococcus faecalis [25] = test: Antimicrobial activity against vancomycin-sensitive Enterococcus faecalis ATCC 29212 assessed as time required to induce post antibiotic sub-MIC effect at 0.2 times MIC after 1 hr by plate counting method; settings: ATCC 29212, 1 h
Enterococcus faecalis [26] = test: Antimicrobial activity against vancomycin-sensitive Enterococcus faecalis 10 by microdilution method
Staphylococcus aureus [27] = test: Antimicrobial activity against methicillin-susceptible, vancomycin-susceptible Staphylococcus aureus ATCC 29213 by microdilution method
Staphylococcus aureus [28] = test: Antimicrobial activity against methicillin-resistant, vancomycin-hetroresistant Staphylococcus aureus 618 assessed as time required to induce post antibiotic sub-MIC effect at 0.2 times MIC after 1 hr by plate counting method; settings: Staphylococcus aureus, 618, 1 h
Streptococcus pneumoniae [29] = test: Antimicrobial activity against Penicillin-, erythromycin-resistant Streptococcus pneumoniae 37 assessed as time required to induce sub-MIC effect at 0.2 times MIC after 1 hr by plate counting method; settings: Streptococcus pneumoniae, 37, 1 h
Enterococcus faecalis [30] = test: Antimicrobial activity against vancomycin-resistant Enterococcus faecalis 609 assessed as time required to induce post antibiotic sub-MIC effect at 0.3 times MIC after 1 hr by plate counting method; settings: Enterococcus faecalis, 609, 1 h
Enterococcus faecalis [31] = test: Antimicrobial activity against vancomycin-sensitive Enterococcus faecalis ATCC 29212 assessed as time required to induce post antibiotic sub-MIC effect at 0.4 times MIC after 1 hr by plate counting method; settings: ATCC 29212, 1 h
Staphylococcus aureus [32] = test: Antimicrobial activity against methicillin-susceptible, vancomycin-susceptible Staphylococcus aureus sox1 by microdilution method
Streptococcus pneumoniae [33] = test: Antimicrobial activity against Penicillin-susceptible Streptococcus pneumoniae ATCC 49617 assessed as time required to induce post antibiotic sub-MIC effect at 0.4 times MIC after 1 hr by plate counting method; settings: ATCC 49617, 1 h
Enterococcus faecalis [34] = test: Antimicrobial activity against vancomycin-sensitive Enterococcus faecalis 20 assessed as post antibiotic effect at 10 times MIC after 1 hr by plate counting method; settings: Enterococcus faecalis, 20, 1 h

Compound: CCO/N=C(\C(=O)N[C@@H]1C(=O)N2C(C(=O)[O-])=C(Sc3nc(-c4cc[n+](C)cc4)cs3)CS[C@H]12)c1nsc(NP(=O)(O)O)n1 [CEFTAROLINE FOSAMIL]
- PAE (Streptococcus pneumoniae [1]): 0 h
- time (Staphylococcus aureus [2]): 1.5 h
- time (Enterococcus faecalis [3]): 1.8 h
- PAE (Staphylococcus aureus [4]): 0.2 h
- PAE (Enterococcus faecalis [5]): 10.5 h
- PAE (Streptococcus pneumoniae [6]): 0.2 h
- time (Enterococcus faecalis [7]): 2.2 h
- PAE (Streptococcus pneumoniae [8]): 0.6 h
- time (Enterococcus faecalis [9]): 1.4 h
- PAE (Staphylococcus aureus [10]): 3.6 h
- time (Staphylococcus aureus [11]): 1.2 h
- PAE (Streptococcus pneumoniae [12]): 0 h
- PAE (Streptococcus pneumoniae [13]): 1.5 h
- PAE (Staphylococcus aureus [14]): 0.2 h
- PAE (Streptococcus pneumoniae [15]): 4.5 h
- time (Enterococcus faecalis [16]): 3 h
- PAE (Streptococcus pneumoniae [17]): 4.1 h
- PAE (Enterococcus faecalis [18]): 1.5 h
- time (Streptococcus pneumoniae [19]): 3 h
- time (Enterococcus faecalis [20]): 8.3 h
- time (Enterococcus faecalis [21]): > 10.3 h
- time (Enterococcus faecalis [22]): 7.9 h
- PAE (Streptococcus pneumoniae [23]): 2.5 h
- time (Staphylococcus aureus [24]): 7.1 h
- PAE (Enterococcus faecalis [25]): 7.6 h
- MIC (Enterococcus faecalis [26]): 0.5 µg/mL (≈ 0.73 µM)
- MIC (Staphylococcus aureus [27]): 0.25 µg/mL (≈ 0.365 µM)
- time (Staphylococcus aureus [28]): 2.2 h
- time (Streptococcus pneumoniae [29]): 0.5 h
- time (Enterococcus faecalis [30]): 3.3 h
- PAE (Enterococcus faecalis [31]): > 10.6 h
- MIC (Staphylococcus aureus [32]): 0.25 µg/mL (≈ 0.365 µM)
- PAE (Streptococcus pneumoniae [33]): 7.2 h
- PAE (Enterococcus faecalis [34]): 0.5 h
